Test results: patent US10028948B2, “Chromone derivative as a dopamine D3 receptor antagonist for its use for the treatment of autism spectrum disorder” (PIERRE FABRE MEDICAMENT, priority 2013, dated 2018)
Counter-ions that a name gives are not always drawn.

Tests used:
[1] = target: T1, human recombinant dopamine D3 receptor (Homo sapiens, UniProt P35462); test: Inhibition of [3H]spiperone binding, human recombinant dopamine D3 receptor; details: cells expressing human recombinant D3 receptor, read-out: inhibition constant (Ki), dopamine D3 receptor
T1 construct: expressed in transfected cells
Method: (§1) The N-(3-{4-[4-(8-oxo-8H-[1,3]dioxolo[4,5-g]chromen-7-yl)-butyl]-piperazin-1-yl}-phenyl)-methanesulfonamide hydrochloride was evaluated in vitro as a dopamine D3 receptor ligand and modulator of the activity of that receptor in accordance with the invention in cells expressing human recombinant dopamine D3 receptor or human recombinant dopamine D2 receptor. The inhibition constant (Ki) was measured by inhibition of the binding of [^3H] spiperone as described by Cussac et al., in Naunyn-Schmiedeberg's Arch. Pharmacol. 2000, vol 361, p 569-572.

[2] = target: T2, human recombinant dopamine D2 receptor (Homo sapiens, UniProt P14416); test: Inhibition of [3H]spiperone binding, human recombinant dopamine D2 receptor; details: human recombinant D2 vs D3 receptor
T2 construct: expressed in transfected cells
Method: as §1

[3] = system: social interaction behavior of offspring of sodium valproate- or saline-treated female rats; test: Social interaction in the valproic acid rat model of autism; format: in vivo, Sprague-Dawley rats; details: acute administration, scored 10 min, n=10
Method: The N-(3-{4-[4-(8-oxo-8H-[1,3]dioxolo[4,5-g]chromen-7-yl)-butyl]-piperazin-1-yl}-phenyl)-methanesulfonamide hydrochloride was tested on social interaction of offspring of female rats which had been administered valproic acid as a sodium salt. The experimental settings of the valproic acid rat model of autism were adapted from published data (Dendrinos et al., Front. Integr. Neurosci. 2011, vol 5, art 68; Markram et al., Neuropsychopharm. 2007, vol 33, p 901-912; Schneider et al., Neuropsychopharm. 2005, vol 30, p 80-89).
Pregnant (embryonic day 8 max) female Sprague-Dawley rats [OFA (SD) Charles River Lyon, France] were quarantined for 4 days. Animals were group housed (2 per cage) in a full bottom cage (ML-H Cage, 370×235×180 mm, L×W×H; floor surface 870 cm^2) in an environmentally controlled room (temperature 21±1° C.; relative humidity 55±5%) under a 12-h light/dark cycle (lights on at 07:00 AM) with food (A04, Safe, Augy, France) and filtered water (0.2 μm pore diameter) freely available. Until weaning of offspring, animals were changed only once per week in order to disturb them as little as possible. Environmental enrichment (nesting material) was provided.
On embryonic days 12 and 13 (E12-E13), females were weighed and received three intraperitoneal injections of 2.4 ml/kg of sodium valproate (NaVPA, 200 mg/kg). Sodium valproate was dissolved in 0.9% saline for a concentration of 83.3 mg/ml, pH 7.3. Control dams received three intraperitoneal injections of saline (2.4 ml/kg). After the third injection, females were individually housed in ML-H type cages and allowed to raise their litters. Offspring were weaned between 21 to 23 days postnatally.
One sodium valproate- or saline-exposed rat and an unfamiliar naïve rat were placed in opposite corners of an arena (black arena 70 cm×70 cm×30 cm, L×I×H). Individual behavior related to social interaction such as following grooming, sniffing or biting the other rat as well as climbing over the other rat, initiated by the tested rat toward the unfamiliar rat were scored for a period of 10 min. […]

T2 sequence (P14416 whole entry): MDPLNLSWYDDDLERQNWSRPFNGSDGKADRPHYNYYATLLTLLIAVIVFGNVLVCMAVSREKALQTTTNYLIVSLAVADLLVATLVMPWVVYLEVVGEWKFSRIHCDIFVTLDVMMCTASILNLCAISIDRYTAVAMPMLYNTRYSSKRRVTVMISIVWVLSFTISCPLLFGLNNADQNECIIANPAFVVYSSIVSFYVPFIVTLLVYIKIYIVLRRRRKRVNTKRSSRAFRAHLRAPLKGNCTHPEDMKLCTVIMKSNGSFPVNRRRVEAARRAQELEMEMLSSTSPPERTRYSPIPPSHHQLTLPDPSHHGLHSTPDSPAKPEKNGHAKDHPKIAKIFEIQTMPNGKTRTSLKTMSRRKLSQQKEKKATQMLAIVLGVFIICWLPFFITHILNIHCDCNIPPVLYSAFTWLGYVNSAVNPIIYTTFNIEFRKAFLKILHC
T1 sequence (P35462 whole entry): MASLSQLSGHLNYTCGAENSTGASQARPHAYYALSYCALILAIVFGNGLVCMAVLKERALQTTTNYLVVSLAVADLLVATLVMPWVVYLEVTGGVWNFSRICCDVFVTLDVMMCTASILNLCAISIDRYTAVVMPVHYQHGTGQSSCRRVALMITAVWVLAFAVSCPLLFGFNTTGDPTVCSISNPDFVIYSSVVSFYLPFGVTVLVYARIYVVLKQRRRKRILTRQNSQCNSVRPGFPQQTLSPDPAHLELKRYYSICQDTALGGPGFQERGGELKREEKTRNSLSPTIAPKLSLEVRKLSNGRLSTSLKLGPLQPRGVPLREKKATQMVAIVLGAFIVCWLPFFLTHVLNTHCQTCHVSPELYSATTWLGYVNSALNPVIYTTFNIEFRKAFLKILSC

Ki [1]: 0.17 nM
affinity for dopamine D2 receptor relative to D3 (times weaker) [2]: 71 times
SMILES: CS(=O)(=O)Nc1cccc(N2CCN(CCCCc3coc4cc5c(cc4c3=O)OCO5)CC2)c1 [compound according to the invention, N-(3-{4-[4-(8-oxo-8H-[1,3]dioxolo[4,5-g]chromen-7-yl)-butyl]-piperazin-1-yl}-phenyl)-methanesulfonamide hydrochloride]
effect on social interaction deficits induced by prenatal exposure to sodium valproate ([3]; 0.63 mg/kg): significantly reduced
effect on social interaction deficits induced by prenatal exposure to sodium valproate ([3]; 2.5 mg/kg): completely reversed
effect on social interaction behavior ([3]; offspring of saline-treated mothers): no significant effects
